Results from patent US11964988B2, “Fused heterocyclic compounds as RET kinase inhibitors” (ARRAY BIOPHARMA INC., priority 2018, dated 2024).
Residue numbers refer to the chain shown, from its start.

How the values were obtained:
[1] = molecular target: T1, HEK-293 cells expressing a Kif5b-RET fusion protein (Homo sapiens, UniProt P07949); test: RET Cell Assay (phospho-RET Tyr1062); format: cell-based; settings: HEK-293 Kif5b-RET, 1 hour incubation, phospho-RET normalized to GAPDH; read-out: KIF5B-RET pTYR1062 Cell IC50
T1 construct: KIF5B (N-terminal portion incl. coiled-coil); expressed in transfected cells; host or cells: HEK-293; the other entry of the earlier key: KIF5B (P33176, Kinesin-1 heavy chain)
T1 sequence (P07949 713-1063 limits assumed): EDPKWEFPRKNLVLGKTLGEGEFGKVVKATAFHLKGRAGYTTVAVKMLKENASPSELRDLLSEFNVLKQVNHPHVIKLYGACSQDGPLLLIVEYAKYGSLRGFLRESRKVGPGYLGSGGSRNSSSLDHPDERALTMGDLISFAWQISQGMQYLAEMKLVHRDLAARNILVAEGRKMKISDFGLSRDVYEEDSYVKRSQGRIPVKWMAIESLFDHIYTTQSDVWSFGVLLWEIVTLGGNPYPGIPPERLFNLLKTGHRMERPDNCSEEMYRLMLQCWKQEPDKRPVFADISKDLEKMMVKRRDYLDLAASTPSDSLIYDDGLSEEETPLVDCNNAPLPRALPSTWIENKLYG
Method: (§1) The cellular potency of compounds inhibiting RET kinase were determined in HEK-293 cells expressing a Kif5b-RET fusion protein. Briefly, HEK-293 cells expressing a Kif5b-RET fusion protein were plated at 50K cells/well in 96 well poly-D-Lysine coated plates the day prior to the assay. The cells were incubated for 1 hour with test compound in DMEM (Dulbecco's Modified Eagle Medium) at a final DMSO concentration of 0.5%. […] After 1 hour the media was removed, the cells were fixed with 3.8% formaldehyde for 20 min, washed with PBS, and permeabilized for 10 min with 100% methanol. The plates were then washed with PBS-0.05% Tween20, and blocked with LI-COR Blocking solution (LI-COR Catalog No. 927-40000) for 1 hour. Plates were washed with PBS-0.05% Tween20, then incubated with anti-phospho-RET (Tyr1062) (Santa Cruz Catalog No. sc-20252-R) antibody and anti-GAPDH (Millipore Catalog No. MAB374) antibody for 2 hours. The plates were washed with PBS-0.05% Tween20, and incubated with anti-rabbit 680 (Molecular Probes Catalog No. A21109) and anti-mouse 800 (LI-COR Catalog No. 926-32210) secondary antibodies for 1 hour. All antibodies were diluted in LI-COR Block containing 0.05% Tween. The plates were washed with PBS-0.05% Tween20,100 μL PBS is added to each well, and the plates were read on a LI-COR Aerius fluorescent plate reader. The phospho-RET signal was normalized to the GAPDH signal. […] The POC values were fit to a 4 parameter logistic curve. The IC50 value is the point where the curve crosses 50 POC.

[2] = molecular target: T2, HEK-293 cells expressing a G810S mutant RET Kif5b-RET fusion protein (Homo sapiens, UniProt P07949, G810S); test: RET G810S Mutant Cell Assay (phospho-RET Tyr1062); format: cell-based; settings: HEK-293 Kif5b-RET G810S, 1 hour incubation, phospho-RET normalized to GAPDH
T2 construct: KIF5B (N-terminal portion incl. coiled-coil); expressed in transfected cells; host or cells: HEK-293
T2 sequence (P07949 713-1063 G810S limits assumed): T1 sequence (P07949 713-1063 limits assumed) with G98S
Method: as §1, with “expressing a G810R or G810S mutant RET Kif5b-RET fusion” for “expressing a Kif5b-RET fusion”, “μL PBS was added to” for “μL PBS is added to”, “POC values are fit to” for “POC values were fit to”

[3] = molecular target: RET kinase Wild Type (Homo sapiens, UniProt P07949); test: biochemical;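 note: HTRF kinase activity assay on RET enzyme, 1 h reaction at 22 °C, dual-wavelength readout as percent of control, DMSO-only wells as 100%, pre-quenched reactions as 0%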
RET kinase Wild Type, sequence (P07949 29-1114): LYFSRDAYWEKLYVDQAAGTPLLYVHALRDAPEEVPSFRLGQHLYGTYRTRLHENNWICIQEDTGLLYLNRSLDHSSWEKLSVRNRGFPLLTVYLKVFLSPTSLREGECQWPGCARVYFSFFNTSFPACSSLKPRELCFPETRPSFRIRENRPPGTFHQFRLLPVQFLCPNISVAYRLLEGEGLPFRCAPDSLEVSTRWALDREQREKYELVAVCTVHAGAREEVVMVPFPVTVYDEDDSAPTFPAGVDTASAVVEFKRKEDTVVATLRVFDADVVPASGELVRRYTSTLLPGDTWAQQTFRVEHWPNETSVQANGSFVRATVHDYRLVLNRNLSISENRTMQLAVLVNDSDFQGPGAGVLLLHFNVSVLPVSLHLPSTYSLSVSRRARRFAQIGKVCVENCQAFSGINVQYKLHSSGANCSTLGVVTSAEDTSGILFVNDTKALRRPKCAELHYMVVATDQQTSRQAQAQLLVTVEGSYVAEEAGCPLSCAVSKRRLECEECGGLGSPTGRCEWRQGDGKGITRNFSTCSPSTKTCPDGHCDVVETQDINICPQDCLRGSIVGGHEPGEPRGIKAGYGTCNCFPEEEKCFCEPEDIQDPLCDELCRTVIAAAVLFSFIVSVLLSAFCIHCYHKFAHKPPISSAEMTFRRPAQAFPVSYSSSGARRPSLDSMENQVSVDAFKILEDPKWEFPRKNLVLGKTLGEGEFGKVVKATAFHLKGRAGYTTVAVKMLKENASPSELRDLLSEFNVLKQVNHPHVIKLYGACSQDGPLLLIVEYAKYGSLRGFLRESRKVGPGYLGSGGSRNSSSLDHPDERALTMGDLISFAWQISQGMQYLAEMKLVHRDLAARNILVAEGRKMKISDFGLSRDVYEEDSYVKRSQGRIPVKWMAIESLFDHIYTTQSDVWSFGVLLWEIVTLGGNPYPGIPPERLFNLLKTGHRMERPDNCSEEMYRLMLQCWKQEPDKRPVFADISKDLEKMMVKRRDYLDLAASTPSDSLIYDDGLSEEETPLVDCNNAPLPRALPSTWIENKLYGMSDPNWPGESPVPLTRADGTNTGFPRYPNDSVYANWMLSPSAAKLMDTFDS
Method: (§2) The potency of compounds inhibiting several different RET kinase forms (Wild Type, V804M, G810R, & G810S) were determined using CisBio's HTRF® KinEASE™-TK assay technology. […] After a 1 hour incubation at 22° C., the extent of reaction was determined using a PerkinElmer EnVision multimode plate reader via HTRF dual wavelength detection, and the percent of control (POC) was calculated using a ratiometric emission factor. One hundred POC was determined using DMSO only samples (no compound present), and 0 POC was determined using pre-quenched control reactions.

[4] = molecular target: G810R mutant RET kinase (Homo sapiens, UniProt P07949, G810R); test: biochemical;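 note: HTRF KinEASE-TK enzymatic assay with 1 nM recombinant RET G810R, 1 h at 22 °C, dual-wavelength ratiometric readout, 100% control without compound, 0% from pre-quenched reactions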
G810R mutant RET kinase, sequence (P07949 29-1114 G810R): as the sequence (P07949 29-1114) above, with G782R counted along it
Method: as §2
The potency of a compound inhibiting G810R or G810S mutant RET kinase was determined using CisBio's HTRF® KinEASE™-TK assay technology. The assays contained G810R or G810S mutant RET produced at Array Biopharma, Inc. (1 nM enzyme). […] After a 1-h incubation at 22° C., the extent of reaction was determined using a PerkinElmer EnVision multimode plate reader via HTRF dual wavelength detection, and the percent of control (POC) was calculated using a ratiometric emission factor. One hundred POC was determined using no test compounds, and 0 POC was determined using pre-quenched control reactions.

[5] = molecular target: G810S mutant RET kinase (Homo sapiens, UniProt P07949, G810S); test: biochemical;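 note: HTRF KinEASE-TK kinase assay with recombinant enzyme, 1 h at 22 °C, dual-wavelength ratiometric read-out, percent of control (DMSO-only = 100, pre-quenched reaction = 0)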
G810S mutant RET kinase, sequence (P07949 29-1114 G810S): as the sequence (P07949 29-1114) above, with G782S counted along it

[6] = molecular target: RET kinase V804M (Homo sapiens, UniProt P07949, V804M); test: RET Enzyme Assay (CisBio HTRF KinEASE-TK), V804M; format: biochemical; settings: read-out: RET V804M Enz FRET IC50
RET kinase V804M, sequence (P07949 29-1114 V804M): as the sequence (P07949 29-1114) above, with V776M counted along it

[7] = molecular target: T3, HEK-293 cells expressing a G810R mutant RET Kif5b-RET fusion protein (Homo sapiens, UniProt P07949, G810R); test: RET G810R Mutant Cell Assay (phospho-RET Tyr1062); format: cell-based; settings: HEK-293 Kif5b-RET G810R, 1 hour incubation, phospho-RET normalized to GAPDH
T3 construct: KIF5B (N-terminal portion incl. coiled-coil); expressed in transfected cells; host or cells: HEK-293; the other entry of the earlier key: KIF5B (P33176, Kinesin-1 heavy chain)
T3 sequence (P07949 713-1063 G810R limits assumed): T1 sequence (P07949 713-1063 limits assumed) with G98R
Method: as §1, with “expressing a G810R or G810S mutant RET Kif5b-RET fusion” for “expressing a Kif5b-RET fusion”, “μL PBS was added to” for “μL PBS is added to”, “POC values are fit to” for “POC values were fit to”

IC50 [1]	IC50 [2]	IC50 [3]	IC50 [4]	IC50 [5]	IC50 [6]	IC50 [7]	SMILES
1000 nM	1000 nM	1260 nM	1910 nM	5570 nM			CC(C)n1c2c(c3c(N)ncnc31)-c1cc3ccc(C(=O)Nc4cnn(C)c4)cc3n1CCC2 [Example 93, 1-amino-5-isopropyl-N-(1-methyl-1H-pyrazol-4-yl)-5,6,7,8-tetrahydropyrimido[5″,4″:4′,5′]pyrrolo[3′,2′: 3,4]azepino[1,2-a]indole-11-carboxamide]
64 nM		16 nM	102 nM	94 nM	34 nM	485 nM	COC1CCc2c(c3c(N)ncnc3n2C(C)C)-c2noc(C3CC3)c21 (racemic) [Example 53, 3-cyclopropyl-7-isopropyl-4-methoxy-4,5,6,7-tetrahydroisoxazolo[4″,3″:6′,7′]cyclohepta[1′,2′:4,5]pyrrolo[2,3-d]pyrimidin-11-amine]
35 nM		47 nM	124 nM	110 nM	114 nM	831 nM	CC(C)n1c2c(c3c(N)ncnc31)-c1noc(C3CC3)c1CN(S(C)(=O)=O)C2 [Example 35, 3-cyclopropyl-7-isopropyl-5-(methylsulfonyl)-4,5,6,7-tetrahydroisoxazolo[4,3-c]pyrimido[5′,4′:4,5]pyrrolo[3,2-e]azepin-11-amine 2,2,2-trifluoroacetate]
65 nM		31 nM	102 nM	75 nM	323 nM	496 nM	CC(C)n1c2c(c3c(N)ncnc31)-c1noc(C3CC3)c1S(=O)(=O)N(C)C2 [Example 22, 11-amino-3-cyclopropyl-7-isopropyl-5-methyl-6,7-dihydro-5H-isoxazolo[3,4-f]pyrimido[5′,4′:4,5]pyrrolo[2,3-d][1,2]thiazepine 4,4-dioxide]
13900 nM	16700 nM	531 nM	2740 nM	2480 nM			CNC(=O)c1ccc2cc3n(c2c1)C(=O)NCc1c-3c2c(N)ncnc2n1C(C)C [Example 73, 1-Amino-5-isopropyl-N-methyl-8-oxo-5,6,7,8-tetrahydropyrimido[5″,4″:4′,5′]pyrrolo[2′,3′:5,6][1,3]diazepino[1,7-a]indole-11-carboxamide]
134 nM		112 nM	269 nM	303 nM	9370 nM	1950 nM	CC(C)n1c2c(c3c(N)ncnc31)-c1ccc(C3CC3)cc1C(=O)NC2 [Example 47, 12-amino-3-cyclopropyl-8-isopropyl-7,8-dihydrobenzo[c]pyrimido[5′,4′:4,5]pyrrolo[3,2-e]azepin-5(6H)-one]
222 nM	408 nM	353 nM	1060 nM	1600 nM			CC(C)n1c2c(c3c(N)ncnc31)-c1cc3ccc(C(=O)Nc4ccccn4)cc3n1CCC2 [Example 90, 1-amino-5-isopropyl-N-(pyridin-2-yl)-5,6,7,8-tetrahydropyrimido[5″,4″:4′,5′]pyrrolo[3′,2′: 3,4]azepino[1,2-a]indole-11-carboxamide]

Continued, compound first:

SMILES	IC50 [1]	IC50 [2]	IC50 [3]	IC50 [4]	IC50 [5]	IC50 [6]	IC50 [7]
CC(C)n1c2c(c3c(N)ncnc31)-c1noc(C3CC3)c1C(=O)N(Cc1ccccc1)C2 [Example 7, 11-amino-5-benzyl-3-cyclopropyl-7-isopropyl-6,7-dihydroisoxazolo[4,3-c]pyrimido[5′,4′:4,5]pyrrolo[3,2-e]azepin-4(5H)-one]	135 nM		91 nM	171 nM	356 nM	340 nM	660 nM
CC(C)n1c2c(c3c(N)ncnc31)-c1noc(C3CC3)c1C(=O)N(CC1CC1)C2 [Example 5, 11-amino-3-cyclopropyl-5-(cyclopropylmethyl)-7-isopropyl-6,7-dihydroisoxazolo[4,3-c]pyrimido[5′,4′:4,5]pyrrolo[3,2-e]azepin-4(5H)-one]	75 nM		17 nM	157 nM	138 nM	99 nM	459 nM
CCN1Cc2c(c3c(N)ncnc3n2C(C)C)-c2noc(C3CC3)c2C1=O [Example 1, 11-amino-3-cyclopropyl-5-ethyl-7-isopropyl-6,7-dihydroisoxazolo[4,3-c]pyrimido[5′,4′:4,5]pyrrolo[3,2-e]azepin-4(5H)-one]	17 nM		52 nM	145 nM	117 nM	202 nM	179 nM
CCCN1Cc2c(c3c(N)ncnc3n2C(C)C)-c2noc(C3CC3)c2C1=O [Example 4]	60 nM		16 nM	157 nM	135 nM	106 nM	290 nM
CC(C)n1c2c(c3c(N)ncnc31)-c1noc(C3CC3)c1C(=O)N(CCc1ccccc1)C2 [Example 8, 11-amino-3-cyclopropyl-7-isopropyl-5-phenethyl-6,7-dihydroisoxazolo[4,3-c]pyrimido[5′,4′:4,5]pyrrolo[3,2-e]azepin-4(5H)-one]	91 nM		41 nM	95 nM	123 nM	227 nM	302 nM
